Test results: ChEMBL document CHEMBL1201862, “PubChem BioAssay data set” (2004)
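A five-concentration, 48-hour dose response in 96-well plates underlies each endpoint, interpolated linearly between surrounding concentrations. GI50: concentration for 50% inhibition of growth.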 The source made the active and inactive calls. Rule as the data show it: active = GI50 up to about 1.1 µM and inactive = higher. Bridge positions count the residues as written; N and C are the ends. Peptide text beside a SMILES is read from it. * marks the point of attachment. Cbz = O=C(OCc1ccccc1)*

How the values were obtained:
Experiment in all cases: DTP human tumour cell line panel, 48 h
786-0 = tested on: 786-0
COLO 205 = tested on: COLO 205
EKVX = tested on: EKVX
HT-29 = tested on: HT-29
IGROV-1 = tested on: IGROV-1
MDA-N = tested on: MDA-N
Malme-3M = tested on: Malme-3M
NCI-H522 = tested on: NCI-H522
OVCAR-3 = tested on: OVCAR-3
OVCAR-4 = tested on: OVCAR-4
OVCAR-5 = tested on: OVCAR-5
RPMI-8226 = tested on: RPMI-8226
SF-295 = tested on: SF-295
SK-MEL-5 = tested on: SK-MEL-5
SNB-75 = tested on: SNB-75
SW-620 = tested on: SW-620
T47D = tested on: T47D
UACC-257 = tested on: UACC-257
A498 = tested on: A498
SR = tested on: SR

Row | Compound | GI50 (786-0) | GI50 (COLO 205) | GI50 (EKVX) | GI50 (HT-29) | GI50 (IGROV-1) | GI50 (MDA-N) | GI50 (Malme-3M) | GI50 (NCI-H522) | GI50 (OVCAR-3) | GI50 (OVCAR-4) | GI50 (OVCAR-5) | GI50 (RPMI-8226) | GI50 (SF-295) | GI50 (SK-MEL-5) | GI50 (SNB-75) | GI50 (SW-620) | GI50 (T47D) | GI50 (UACC-257) | GI50 (A498) | GI50 (SR)
1 | CCN(CCC#N)C(=O)Nc1ccccc1 | > 100 µM (inactive) | > 100 µM (inactive) | > 100 µM (inactive) | > 100 µM (inactive) | > 100 µM (inactive) | > 100 µM (inactive) | 62.7 µM (inactive) | > 100 µM (inactive) | > 100 µM (inactive) | > 100 µM (inactive) | > 100 µM (inactive) | > 100 µM (inactive) | > 100 µM (inactive) | > 100 µM (inactive) | 93.1 µM (inactive) | > 100 µM (inactive) | > 100 µM (inactive) | > 100 µM (inactive) | – | –
2 | O=C1c2cc(I)ccc2N2CCN=C2N1Cc1ccccc1 | 96.6 µM (inactive) | > 100 µM (inactive) | 22.1 µM (inactive) | > 100 µM (inactive) | > 100 µM (inactive) | – | > 100 µM (inactive) | > 100 µM (inactive) | > 100 µM (inactive) | > 100 µM (inactive) | > 100 µM (inactive) | 92.7 µM (inactive) | 73.1 µM (inactive) | > 100 µM (inactive) | 19.7 µM (inactive) | > 100 µM (inactive) | 58.7 µM (inactive) | > 100 µM (inactive) | 0.723 µM (active) | 84.5 µM (inactive)
3 | O=c1cc(N2CCCC2)[nH]c(=O)n1-c1cccc(Cl)c1 | > 100 µM (inactive) | > 100 µM (inactive) | > 100 µM (inactive) | > 100 µM (inactive) | > 100 µM (inactive) | > 100 µM (inactive) | > 100 µM (inactive) | > 100 µM (inactive) | > 100 µM (inactive) | > 100 µM (inactive) | > 100 µM (inactive) | > 100 µM (inactive) | > 100 µM (inactive) | – | > 100 µM (inactive) | > 100 µM (inactive) | > 100 µM (inactive) | > 100 µM (inactive) | > 100 µM (inactive) | –
4 | CC1(C)[C@@H]2C[C@H]1C(Cc1cccc(C[C@H]3c4cc(-c5ccccn5)ncc4[C@H]4C[C@@H]3C4(C)C)c1)c1cc(-c3ccccn3)ncc12 (stereo not given in full) | 0.32 µM (active) | 0.452 µM (active) | – | 0.951 µM (active) | 0.452 µM (active) | 0.729 µM (active) | – | 1.63 µM (inactive) | 0.502 µM (active) | 4.58 µM (inactive) | 1.12 µM (active) | 1.39 µM (inactive) | 0.92 µM (active) | 0.303 µM (active) | 5.05 µM (inactive) | 0.745 µM (active) | 1.71 µM (inactive) | 1.48 µM (inactive) | 3.51 µM (inactive) | –
5 | O=C(O)c1ccccc1C(=O)Nn1cnnc1 | > 100 µM (inactive) | > 100 µM (inactive) | > 100 µM (inactive) | > 100 µM (inactive) | > 100 µM (inactive) | > 100 µM (inactive) | – | > 100 µM (inactive) | > 100 µM (inactive) | > 100 µM (inactive) | > 100 µM (inactive) | > 100 µM (inactive) | > 100 µM (inactive) | > 100 µM (inactive) | > 100 µM (inactive) | > 100 µM (inactive) | – | > 100 µM (inactive) | – | –
6 | Cc1cc(S(=O)(=O)Nc2nc3ccsc3c(=O)n2N)c(S)cc1Cl | > 100 µM (inactive) | > 100 µM (inactive) | > 100 µM (inactive) | > 100 µM (inactive) | > 100 µM (inactive) | > 100 µM (inactive) | 81.1 µM (inactive) | 44 µM (inactive) | > 100 µM (inactive) | 68.1 µM (inactive) | 35.2 µM (inactive) | > 100 µM (inactive) | 31.3 µM (inactive) | 56.9 µM (inactive) | > 100 µM (inactive) | > 100 µM (inactive) | – | > 100 µM (inactive) | – | –
7 | CNC(=O)C1CCCCNC(=O)CCC(NC(=O)OCc2ccccc2)C(=O)N1 (stereo not drawn) (Cbz-Glu-Lys-NHMe; lactam 1-2; configuration not given here) | > 100 µM (inactive) | > 100 µM (inactive) | > 100 µM (inactive) | > 100 µM (inactive) | > 100 µM (inactive) | > 100 µM (inactive) | > 100 µM (inactive) | > 100 µM (inactive) | > 100 µM (inactive) | > 100 µM (inactive) | > 100 µM (inactive) | > 100 µM (inactive) | > 100 µM (inactive) | > 100 µM (inactive) | > 100 µM (inactive) | > 100 µM (inactive) | > 100 µM (inactive) | > 100 µM (inactive) | 39.5 µM (inactive) | –
8 | CC(C)[C@]12O[C@H]1[C@@H]1O[C@]13[C@]1(O[C@H]1C[C@H]1C4=C(CC[C@@]13C)C(=O)OC4)[C@@H]2O [TRIPTOLIDE] | 0.0169 µM (active) | 0.00776 µM (active) | 0.021 µM (active) | 0.0083 µM (active) | 0.00713 µM (active) | 0.00759 µM (active) | 0.0112 µM (active) | 0.00881 µM (active) | 0.00586 µM (active) | 0.00792 µM (active) | – | – | 0.0279 µM (active) | 0.00697 µM (active) | 0.0101 µM (active) | 0.0141 µM (active) | – | – | 0.018 µM (active) | 0.0173 µM (active)
